Laboratory results taken from ChEMBL document CHEMBL4406913, “INCB050465 (Parsaclisib), a Novel Next-Generation Inhibitor of Phosphoinositide 3-Kinase Delta (PI3Kδ)” (ACS Med Chem Lett, 2019).
Calls of active or inactive are those of the source. No cut-off for these calls is given here.

What was measured:
Cytochrome P450 2C19 = Cytochrome P450 2C19 (Homo sapiens, UniProt P33261); test: Inhibition of CYP2C19 in human liver microsomes at 0.1 to 25 uM using S-mephenytoin as substrate by LC/MS analysis; format: ADME
Cytochrome P450 2C19, sequence (P33261 whole entry): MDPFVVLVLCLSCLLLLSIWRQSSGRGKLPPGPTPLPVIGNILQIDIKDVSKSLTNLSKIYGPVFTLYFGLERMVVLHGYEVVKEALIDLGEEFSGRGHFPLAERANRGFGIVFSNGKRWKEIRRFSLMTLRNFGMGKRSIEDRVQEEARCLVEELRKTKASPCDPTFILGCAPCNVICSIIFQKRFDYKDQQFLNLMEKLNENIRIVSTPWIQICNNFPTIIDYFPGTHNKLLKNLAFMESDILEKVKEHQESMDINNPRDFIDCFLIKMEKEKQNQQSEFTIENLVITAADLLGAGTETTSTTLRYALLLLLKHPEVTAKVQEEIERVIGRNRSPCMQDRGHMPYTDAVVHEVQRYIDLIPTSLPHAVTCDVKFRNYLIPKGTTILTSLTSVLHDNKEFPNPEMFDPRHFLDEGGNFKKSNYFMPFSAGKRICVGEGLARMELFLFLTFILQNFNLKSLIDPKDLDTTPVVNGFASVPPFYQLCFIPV

Pfeiffer [1] = test: Cytotoxicity against human Pfeiffer cells assessed as reduction in protein binding adjusted cell viability incubated for 4 days by [3H]-thymidine incorporation based liquid scintillation counter method; format: functional
[2] = target: Phosphatidylinositol 4,5-bisphosphate 3-kinase catalytic subunit beta isoform (Homo sapiens, UniProt P42338); test: Inhibition of PI3Kbeta (unknown origin) using D-myophosphatidylinositol 4,5-bisphosphate as substrate incubated for 120 mins by [gamma-33P]-ATP based scintillation counting method
Phosphatidylinositol 4,5-bisphosphate 3-kinase catalytic subunit beta isoform, sequence (P42338 whole entry, canonical isoform): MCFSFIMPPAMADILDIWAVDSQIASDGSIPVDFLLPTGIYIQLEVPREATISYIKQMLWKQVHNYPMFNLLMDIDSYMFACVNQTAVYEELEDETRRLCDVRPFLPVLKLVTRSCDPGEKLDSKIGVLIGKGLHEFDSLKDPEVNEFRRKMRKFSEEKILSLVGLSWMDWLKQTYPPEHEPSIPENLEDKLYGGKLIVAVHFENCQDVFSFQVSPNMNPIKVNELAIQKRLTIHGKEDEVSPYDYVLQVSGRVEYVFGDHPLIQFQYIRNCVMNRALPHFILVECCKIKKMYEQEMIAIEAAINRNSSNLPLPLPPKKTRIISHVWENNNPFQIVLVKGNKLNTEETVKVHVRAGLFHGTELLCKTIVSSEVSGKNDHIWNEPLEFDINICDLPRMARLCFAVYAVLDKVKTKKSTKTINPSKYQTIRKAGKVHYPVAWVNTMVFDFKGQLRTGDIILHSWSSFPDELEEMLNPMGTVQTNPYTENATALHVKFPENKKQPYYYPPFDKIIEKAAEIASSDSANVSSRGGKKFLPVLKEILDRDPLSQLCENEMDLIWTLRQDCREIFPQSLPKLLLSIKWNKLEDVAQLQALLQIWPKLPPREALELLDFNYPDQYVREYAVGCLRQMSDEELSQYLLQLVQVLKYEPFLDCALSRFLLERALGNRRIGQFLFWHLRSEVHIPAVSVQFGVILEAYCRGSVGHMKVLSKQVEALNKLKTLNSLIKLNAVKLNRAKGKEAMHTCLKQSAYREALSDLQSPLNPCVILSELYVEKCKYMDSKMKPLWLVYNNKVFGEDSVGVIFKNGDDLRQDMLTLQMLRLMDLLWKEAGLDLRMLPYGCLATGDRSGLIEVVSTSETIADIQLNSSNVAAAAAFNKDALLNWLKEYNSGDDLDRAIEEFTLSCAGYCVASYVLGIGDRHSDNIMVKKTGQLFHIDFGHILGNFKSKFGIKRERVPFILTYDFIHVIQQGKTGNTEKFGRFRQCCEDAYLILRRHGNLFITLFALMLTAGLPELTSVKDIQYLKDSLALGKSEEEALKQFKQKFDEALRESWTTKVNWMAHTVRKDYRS

[3] = Intrinsic clearance in human liver microsomes at 1 uM measured upto 30 mins by LC/MS analysis; format: ADME, Microsome; conditions: read-out: CLH (converted)
[4] = target: T1, Phosphatidylinositol 4,5-bisphosphate 3-kinase catalytic subunit delta isoform (Homo sapiens, UniProt O00329); test: Inhibition of PI3Kdelta (unknown origin) using D-myophosphatidylinositol 4,5-bisphosphate as substrate incubated for 120 mins by [gamma-33P]-ATP based scintillation counting method
T1 sequence (O00329 whole entry): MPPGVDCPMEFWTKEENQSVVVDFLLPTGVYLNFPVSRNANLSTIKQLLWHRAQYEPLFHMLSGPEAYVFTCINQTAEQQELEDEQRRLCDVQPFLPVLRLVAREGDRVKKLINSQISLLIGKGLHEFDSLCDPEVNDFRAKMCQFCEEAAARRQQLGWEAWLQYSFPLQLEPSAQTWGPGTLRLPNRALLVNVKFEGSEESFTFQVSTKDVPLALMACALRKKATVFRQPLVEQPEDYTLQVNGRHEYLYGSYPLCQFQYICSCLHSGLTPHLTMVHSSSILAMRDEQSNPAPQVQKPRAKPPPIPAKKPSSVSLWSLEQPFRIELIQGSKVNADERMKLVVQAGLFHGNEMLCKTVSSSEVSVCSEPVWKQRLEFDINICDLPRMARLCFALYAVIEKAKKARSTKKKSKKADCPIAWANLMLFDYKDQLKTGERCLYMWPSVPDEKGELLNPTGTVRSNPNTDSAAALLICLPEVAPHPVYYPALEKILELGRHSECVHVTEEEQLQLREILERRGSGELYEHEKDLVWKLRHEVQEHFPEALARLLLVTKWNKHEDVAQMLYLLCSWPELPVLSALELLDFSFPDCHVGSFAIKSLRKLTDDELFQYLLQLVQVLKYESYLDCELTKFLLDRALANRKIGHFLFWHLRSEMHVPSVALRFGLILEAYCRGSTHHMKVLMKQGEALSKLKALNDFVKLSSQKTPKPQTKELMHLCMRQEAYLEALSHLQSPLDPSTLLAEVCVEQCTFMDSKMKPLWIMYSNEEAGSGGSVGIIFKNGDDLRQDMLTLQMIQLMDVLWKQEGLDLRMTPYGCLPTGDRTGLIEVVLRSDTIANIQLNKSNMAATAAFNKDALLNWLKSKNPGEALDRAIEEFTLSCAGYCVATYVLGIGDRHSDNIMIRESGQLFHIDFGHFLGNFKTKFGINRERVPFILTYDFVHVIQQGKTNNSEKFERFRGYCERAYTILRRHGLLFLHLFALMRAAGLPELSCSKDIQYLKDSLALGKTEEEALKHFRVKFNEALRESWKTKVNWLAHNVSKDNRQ

Cytochrome P450 2B6 = target: T2, Cytochrome P450 2B6 (Homo sapiens, UniProt P20813); test: Inhibition of CYP2B6 in human liver microsomes at 0.1 to 25 uM using bupropion as substrate by LC/MS analysis; format: ADME
T2 sequence (P20813 whole entry): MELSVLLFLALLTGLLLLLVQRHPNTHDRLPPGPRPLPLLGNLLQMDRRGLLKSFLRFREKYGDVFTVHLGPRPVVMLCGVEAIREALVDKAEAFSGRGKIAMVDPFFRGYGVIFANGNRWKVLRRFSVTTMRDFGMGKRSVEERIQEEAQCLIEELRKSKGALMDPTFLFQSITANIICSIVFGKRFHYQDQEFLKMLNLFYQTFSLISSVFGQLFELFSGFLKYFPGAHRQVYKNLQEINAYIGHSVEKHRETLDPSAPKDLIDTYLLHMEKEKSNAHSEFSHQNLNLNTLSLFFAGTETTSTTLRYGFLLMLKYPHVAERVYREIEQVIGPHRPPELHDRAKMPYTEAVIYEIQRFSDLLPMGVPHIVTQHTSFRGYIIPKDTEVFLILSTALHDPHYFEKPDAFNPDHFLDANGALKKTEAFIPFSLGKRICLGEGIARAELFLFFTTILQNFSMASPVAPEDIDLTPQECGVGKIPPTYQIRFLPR

[5] = target: T1, Phosphatidylinositol 4,5-bisphosphate 3-kinase catalytic subunit delta isoform; test: Inhibition of PI3Kdelta in human Ramos cells assessed as reduction in AKT phosphorylation incubated for 2 hrs by Alexa flour 488 based FACS analysis; format: cell-based
[6] = Oral bioavailability in Beagle dog at 4 mg/kg measured for 24 hrs by LC-MS/MS analysis; format: ADME, organism-based, Canis lupus familiaris; conditions: in vivo
[7] = target: T1, Phosphatidylinositol 4,5-bisphosphate 3-kinase catalytic subunit delta isoform; test: Inhibition of PI3Kdelta in human whole blood assessed as reduction in anti-IgE antibody-induced CD63 expression by flow cast kit method; format: tissue-based
[8] = Terminal half life in rat at 4 mg/kg, iv measured for 24 hrs by LC-MS/MS analysis; format: ADME, organism-based; conditions: in vivo, read-out: beta t1/2 (converted)
[9] = Clearance in Beagle dog at 2 mg/kg, iv measured for 24 hrs by LC-MS/MS analysis; format: ADME, organism-based, Canis lupus familiaris; conditions: in vivo
[10] = Clearance in rat at 4 mg/kg, iv measured for 24 hrs by LC-MS/MS analysis; format: ADME, organism-based; conditions: in vivo
Pfeiffer [11] = test: In vivo inhibition of PI3Kdelta in human Pfeiffer cells xenografted in SCID mouse assessed as reduction in AKT phosphorylation at Ser473 residue in tumor lysates at 1 mg/kg, po bid for 14 days measured at 4 hrs post last dose by Western blot analysis; format: functional, organism-based; conditions: Neoplasm, Lysate
Cytochrome P450 2C8 = target: T3, Cytochrome P450 2C8 (Homo sapiens, UniProt P10632); test: Inhibition of CYP2C8 in human liver microsomes at 0.1 to 25 uM using amodiaquine as substrate by LC/MS analysis; format: ADME
T3 sequence (P10632 whole entry): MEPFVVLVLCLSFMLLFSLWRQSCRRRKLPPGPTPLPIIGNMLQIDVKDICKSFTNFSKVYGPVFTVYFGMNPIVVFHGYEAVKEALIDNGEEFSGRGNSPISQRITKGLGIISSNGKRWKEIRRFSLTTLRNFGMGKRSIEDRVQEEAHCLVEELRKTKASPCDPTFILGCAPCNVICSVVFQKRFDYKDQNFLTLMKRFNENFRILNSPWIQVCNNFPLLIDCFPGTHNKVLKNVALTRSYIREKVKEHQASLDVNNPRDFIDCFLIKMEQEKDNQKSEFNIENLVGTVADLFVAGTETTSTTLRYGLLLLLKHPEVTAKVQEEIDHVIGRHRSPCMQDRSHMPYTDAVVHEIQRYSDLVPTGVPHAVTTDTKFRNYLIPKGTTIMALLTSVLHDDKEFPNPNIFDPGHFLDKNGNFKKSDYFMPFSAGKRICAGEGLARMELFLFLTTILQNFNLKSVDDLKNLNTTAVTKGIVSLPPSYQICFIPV

inhibition (INH) (Cytochrome P450 2C19): Not Active | IC50 [2]: > 20 µM | CLint scaled at 1 µM [3]: 11.7 mL/min/kg | IC50 [4]: 1.1 nM | inhibition (INH) (Cytochrome P450 2B6): Not Active | IC50 [5]: 1.1 nM | bioavailability [6]: 100% | IC50 [7]: 2 nM | half-life [8]: 240 min | CL [9]: 2% | CL [10]: 26% | inhibition (INH) (Cytochrome P450 2C8): Not Active
Structure (SMILES): CCOc1c([C@H](C)n2nc(C)c3c(N)ncnc32)cc(Cl)c(F)c1[C@@H]1CNC(=O)C1 [PARSACLISIB]
IC50 (Pfeiffer [1]): 4.2 nM | inhibition (Pfeiffer [11]): Active
